Test results published in the NIST ThermoML archive (doi:10.1021/je050525c).
Numbers after ± are expanded uncertainties.

Conditions: Liquid, Ebulliometric method (Recirculating still)

| SMILES | vapor or sublimation pressure (179.68 K) [kPa] | vapor or sublimation pressure (190.14 K) [kPa] | vapor or sublimation pressure (200.68 K) [kPa] | vapor or sublimation pressure (210.03 K) [kPa] |
| --- | --- | --- | --- | --- |
| CC [ethane] | 77 ± 4 | 136 ± 4 | 223 ± 4 | 336 ± 4 |
| FC(F)(F)F [tetrafluoromethane] | 679 ± 5 | 1058 ± 6 | 1575 ± 7 | 2163 ± 9 |
